Values after ≈ are worked out from the molar mass of the structure shown. Read-outs that look alike come from different tables or passages of the source. Starred links: 1 amine or outer side, 2 acyl side, 3 side chain; linkers in the order of their positions; H or OH if unused. Positions of bridges follow the written chain, without caps; N, C: chain ends. Residues, ends and D or L forms follow the SMILES beside them. *: point of attachment. C20 diacid = O=C(O)CCCCCCCCCCCCCCCCCCC(=O)*; γGlu = O=C(O)[C@H](CCC(=O)[*:2])N[*:1]

A short description of data set [1]: Assay (III) ThT fibrillation assay for physical stability. The class given is physicochemical. Put shortly: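 Freshly prepared formulations, pH-adjusted, with 1 μM ThT; four or eight replicates incubated at 37 °C under 960 rpm orbital shaking. Fluorescence (ex 444/em 485 nm) read every 20 min; […]. Peptide concentration measured by RP-HPLC before and after the run.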

Data set [2] concerns the target T1, human calcitonin receptor (Homo sapiens, UniProt P30988).
T1 construct: expressed in transfected cells; host or cells: BHK570
T1 sequence (P30988 25-474): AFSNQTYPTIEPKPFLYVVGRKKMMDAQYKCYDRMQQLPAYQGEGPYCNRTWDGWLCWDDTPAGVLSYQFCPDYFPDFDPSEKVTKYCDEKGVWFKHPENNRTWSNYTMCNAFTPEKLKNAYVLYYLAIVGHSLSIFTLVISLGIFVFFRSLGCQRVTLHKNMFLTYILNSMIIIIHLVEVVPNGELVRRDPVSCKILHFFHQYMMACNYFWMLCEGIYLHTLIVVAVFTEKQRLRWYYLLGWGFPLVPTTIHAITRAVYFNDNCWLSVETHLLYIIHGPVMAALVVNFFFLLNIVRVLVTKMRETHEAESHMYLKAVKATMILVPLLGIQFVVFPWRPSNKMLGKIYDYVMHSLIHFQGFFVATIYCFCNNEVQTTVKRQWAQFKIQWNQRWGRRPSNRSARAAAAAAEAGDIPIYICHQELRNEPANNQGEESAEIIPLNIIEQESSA
The experiment in a line: Assay (II)a functional CRE-luciferase assay, human calcitonin receptor. The class given is cell-based.

A short description of data set [3]: Assay (IV) determination of solubility. The class given is physicochemical. Put shortly:
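Stock ~500 nmol/ml in water; 1:1 with 100 mM buffer, pH 3.0–8.0 (glycylglycine ≤5.0, bistrispropane ≥6.0); 18 h RT; spin; HPLC quantitation of soluble polypeptide.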

Data set [4] has as its target T2, human amylin receptor (amylin 3(a) receptor: human calcitonin receptor + RAMP-3) (Homo sapiens, UniProt O60896+P30988).
T2 construct: expressed in transfected cells; host or cells: BHK570
T2 sequence (P30988 25-474): T1 sequence (P30988 25-474)
T2 sequence (O60896 24-148 partner): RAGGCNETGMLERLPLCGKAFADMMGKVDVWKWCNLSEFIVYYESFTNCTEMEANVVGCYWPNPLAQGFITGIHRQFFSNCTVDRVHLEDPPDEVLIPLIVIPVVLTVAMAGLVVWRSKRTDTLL
The experiment in a line: Assay (II)a functional CRE-luciferase assay, human amylin receptor. The class given is cell-based.

[5] abbreviates: bistrispropane buffer, pH 6, pH 6.0, read-out: Solubility pH 6.0.
Where [6] appears, read: bistrispropane buffer, pH 6.5, pH 6.5, read-out: Solubility pH 6.5.
The mark [7] stands for this setting: bistrispropane buffer, pH 7, pH 7.0, 18 hours at room temperature, Table 3, read-out: Solubility pH 7.0.
[8] abbreviates: bistrispropane buffer, pH 7, pH 7.0, Table 8, read-out: Solubility pH 7.0.
Where [9] appears, read: bistrispropane buffer, pH 7, pH 7.0, Table 9, read-out: Solubility pH 7.0.
[10] abbreviates: bistrispropane buffer, pH 7, pH 7.0, read-out: Solubility pH 7.0.
[11] abbreviates: bistrispropane buffer, pH 7.5, pH 7.5, Table 9, read-out: Solubility pH 7.5.
[12] abbreviates: bistrispropane buffer, pH 7.5, pH 7.5, read-out: Solubility pH 7.5.
The mark [13] stands for this setting: bistrispropane buffer, pH 8, pH 8.0, read-out: Solubility pH 8.0.
Where [14] appears, read: glycylglycine buffer, pH 3, pH 3.0, read-out: Solubility pH 3.0.
Where [15] appears, read: glycylglycine buffer, pH 4, pH 4.0, 18 hours at room temperature, Table 2, read-out: Solubility pH 4.0.
Where [16] appears, read: glycylglycine buffer, pH 4, pH 4.0, read-out: Solubility pH 4.0.
Setting [17] is: glycylglycine buffer, pH 5, pH 5.0, read-out: Solubility pH 5.0.
The mark [18] stands for this setting: Table 2, BHK amylin 3(a)-receptor/CRE-luc cells.
The mark [19] stands for this setting: Table 7, human calcitonin (CTa) receptor.

What is called EC50 is the concentration at which the effect is half-maximal. What is called solubility is the concentration that dissolves in the medium under given conditions. Regarding `CC[C@H](C)[C@H](NC(=O)[C@@H]1CCCN1C(=O)CNC(=O)[C@H](Cc1ccccc1)NC(=O)[C@H](CCC(N)=O)NC(=O)[C@H](CCC(N)=O)NC(=O)[C@H](CO)NC(=O)[C@H](CO)NC(=O)[C@H](Cc1c[nH]cn1)NC(=O)[C@H](CCCNC(=N)N)NC(=O)[C@H](CC(C)C)NC(=O)[C@H](Cc1ccccc1)NC(=O)[C@H](CCC(=O)O)NC(=O)[C@H](C)NC(=O)[C@H](CC(C)C)NC(=O)[C@H](CCCNC(=N)N)NC(=O)[C@H](CCC(N)=O)NC(=O)[C@@H](NC(=O)[C@H](C)NC(=O)[C@@H]1CSSC[C@H](NC(=O)[C@H](CCC(=O)O)NC(=O)[C@H](CCCNC(=N)N)NC(=O)[C@H](CCC(=O)O)NC(=O)CC[C@H](NC(=O)CCCCCCCCCCCCCCCCCCC(=O)O)C(=O)O)C(=O)N[C@@H](CC(N)=O)C(=O)N[C@@H]([C@@H](C)O)C(=O)N[C@@H](C)C(=O)N[C@@H]([C@@H](C)O)C(=O)N1)[C@@H](C)O)C(=O)N[C@@H](CC(C)C)C(=O)N1CCC[C@H]1C(=O)N1CCC[C@H]1C(=O)N[C@H](C(=O)N[C@@H](CCC(N)=O)C(=O)N[C@H](C(=O)NCC(=O)N[C@@H](CO)C(=O)N[C@@H](CCC(N)=O)C(=O)N[C@H](C(=O)N1CCC[C@H]1C(N)=O)[C@@H](C)O)C(C)C)[C@@H](C)O` [Example 164, N-alpha-[(S)-4-Carboxy-4-(19-carboxynonadecanoylamino)butyryl]-Glu-Arg-[Glu1,Glu14,Arg17,Gln21,Gln22,Gln31,Gln35,Pro37]-pramlintide] ({C20 diacid-γGlu}-ERECNTATCATQRLAEFLRHSSQQFGPILPPTQVGSQTP-NH2; disulfide 4-9 (inferred)), the “ThT pH 4.0 lag time” value in data set [1] (Table 8), in data set [1] (Table 9) and in data set [1] (ThT fibrillation assay) was >45 h in each case. In data set [1] (ThT fibrillation assay), the “ThT pH 4.0 lag time (h)” value is >45 h. Also, the EC50 in data set [2] (Table 11, read-out: CTa receptor human EC50) came to 3570 pM; in data set [4] (setting [18]), 1710 pM. For the same molecule, the solubility at 18 h in data set [3] (setting [5]), in data set [3] (setting [6]), in data set [3] (setting [7]), in data set [3] (setting [8]), in data set [3] (setting [9]) and in data set [3] (setting [10]) was > 200 µM in each case. The solubility at 18 h in data set [3] (setting [11]), in data set [3] (setting [12]), in data set [3] (setting [13]), in data set [3] (setting [14]), in data set [3] (setting [15]) and in data set [3] (setting [16]) was > 200 µM in each case. Further, the solubility at 18 h in data set [3] (setting [17]) is > 200 µM.

As for `CC(C)C[C@H](NC(=O)[C@H](CCCNC(=N)N)NC(=O)[C@H](CCC(N)=O)NC(=O)[C@@H](NC(=O)[C@H](C)NC(=O)[C@@H]1CSSC[C@H](NC(=O)[C@H](CCCCN)NC(=O)CC[C@H](NC(=O)CCCCCCCCCCCCCCCCCCC(=O)O)C(=O)O)C(=O)N[C@@H](CC(N)=O)C(=O)N[C@@H]([C@@H](C)O)C(=O)N[C@@H](C)C(=O)N[C@@H]([C@@H](C)O)C(=O)N1)[C@@H](C)O)C(=O)N[C@@H](C)C(=O)N[C@@H](CCC(=O)O)C(=O)N[C@@H](Cc1ccccc1)C(=O)N[C@@H](CC(C)C)C(=O)N[C@H](C(=O)N[C@@H](CCCNC(=N)N)C(=O)N[C@@H](CO)C(=O)N[C@@H](CO)C(=O)N[C@@H](CCC(N)=O)C(=O)N[C@@H](CC(N)=O)C(=O)N[C@@H](Cc1ccccc1)C(=O)NCC(=O)N[C@@H](C)C(=O)N1CCC[C@H]1C(=O)N[C@@H](CC(C)C)C(=O)N[C@@H](CO)C(=O)N[C@@H](CO)C(=O)N[C@H](C(=O)N[C@@H](CC(N)=O)C(=O)N[C@H](C(=O)NCC(=O)N[C@@H](CO)C(=O)N[C@@H](CC(N)=O)C(=O)N[C@H](C(=O)N1CCC[C@H]1C(N)=O)[C@@H](C)O)C(C)C)[C@@H](C)O)C(C)C` [Example 166, N-alpha-[(S)-4-Carboxy-4-(19-carboxynonadecanoylamino)butyryl]-[Glu14,Arg18,Gln21,Ala25,Pro26,Ser28,Ser29,Pro37]-pramlintide] ({C20 diacid-γGlu}-KCNTATCATQRLAEFLVRSSQNFGAPLSSTNVGSNTP-NH2; disulfide 2-7 (inferred); C-terminus assumed), the “ThT pH 4.0 lag time (h)” value in data set [1] (ThT fibrillation assay) came out at 1.3 h. In addition, the EC50 is 34 pM in data set [2] (setting [19]) and 39 pM in data set [4] (setting [18]). Also, the solubility at 18 h in data set [3] (setting [5]), in data set [3] (setting [6]), in data set [3] (setting [7]), in data set [3] (setting [10]), in data set [3] (setting [12]) and in data set [3] (setting [13]) was > 200 µM each time. Besides, the solubility at 18 h in data set [3] (setting [14]), in data set [3] (setting [15]), in data set [3] (setting [16]) and in data set [3] (setting [17]) was > 200 µM each time.

As for `CC[C@H](C)[C@H](NC(=O)[C@@H]1CCCN1C(=O)CNC(=O)[C@H](Cc1ccccc1)NC(=O)[C@H](CO)NC(=O)[C@H](CO)NC(=O)[C@H](CO)NC(=O)[C@H](CO)NC(=O)[C@H](CCCNC(=N)N)NC(=O)[C@@H](NC(=O)[C@H](CC(C)C)NC(=O)[C@H](Cc1ccccc1)NC(=O)[C@H](CCC(=O)O)NC(=O)[C@H](C)NC(=O)[C@H](CC(C)C)NC(=O)[C@H](CCCNC(=N)N)NC(=O)[C@H](CCC(N)=O)NC(=O)[C@@H](NC(=O)[C@H](C)NC(=O)[C@@H]1CSSC[C@H](NC(=O)[C@H](CCCCN)NC(=O)CC[C@H](NC(=O)CCCCCCCCCCCCCCCCCCC(=O)O)C(=O)O)C(=O)N[C@@H](CC(N)=O)C(=O)N[C@@H]([C@@H](C)O)C(=O)N[C@@H](C)C(=O)N[C@@H]([C@@H](C)O)C(=O)N1)[C@@H](C)O)C(C)C)C(=O)N[C@@H](CC(C)C)C(=O)N[C@@H](CO)C(=O)N[C@@H](CO)C(=O)N[C@H](C(=O)N[C@@H](CC(=O)O)C(=O)N[C@H](C(=O)NCC(=O)N[C@@H](CO)C(=O)N[C@@H](CC(=O)O)C(=O)N[C@H](C(=O)N1CCC[C@H]1C(N)=O)[C@@H](C)O)C(C)C)[C@@H](C)O` [Example 170, N-alpha-[(S)-4-Carboxy-4-(19-carboxynonadecanoylamino)butyryl]-[Glu14,Arg18,Ser21,Ser22,Ser28,Ser29,Asp31,Asp35,Pro37]-pramlintide] ({C20 diacid-γGlu}-KCNTATCATQRLAEFLVRSSSSFGPILSSTDVGSDTP-NH2; disulfide 2-7 (inferred)), the “ThT pH 4.0 lag time” value in data set [1] (Table 8), in data set [1] (Table 9) and in data set [1] (ThT fibrillation assay) was >45 h each time. In addition, the “ThT pH 4.0 lag time (h)” value in data set [1] (ThT fibrillation assay) is >45 h. Also, the EC50 in data set [2] (setting [19]) came out at 76 pM; in data set [4] (setting [18]) it was 90 pM. The solubility at 18 h in data set [3] (setting [5]), in data set [3] (setting [6]), in data set [3] (setting [7]), in data set [3] (setting [8]), in data set [3] (setting [9]) and in data set [3] (setting [10]) was > 200 µM throughout. Besides, the solubility at 18 h was > 200 µM in data set [3] (setting [11]); > 200 µM in data set [3] (setting [12]); 188 µM (≈ 808 µg/mL) in data set [3] (setting [13]); > 200 µM in data set [3] (setting [14]); > 200 µM in data set [3] (setting [15]); > 200 µM in data set [3] (setting [16]). Besides, in data set [3] (setting [17]), the solubility at 18 h was found to be 186 µM (≈ 800 µg/mL).

As for “{C20 diacid-γGlu}-SSGSSGCNTATCATQRLAEFLHHSSNNFGPILPPTNVGSNTY-NH2 (disulfide 7-12 (inferred)) [Example 39, N-alpha-[(S)-4-Carboxy-4-(19-carboxynonadecanoylamino)butyryl]-Ser-Ser-Gly-Ser-Ser-[Gly1,Glu14,His17]-pramlintide]”, in data set [1] (ThT fibrillation assay), the “ThT pH 4.0 lag time (h)” value came to 0 h. In addition, the EC50 stood at 432 pM in data set [2] (setting [19]) and 253 pM in data set [4] (Table 6, human amylin receptor). The solubility at 18 h was 6 µM in data set [3] (setting [5]); 4 µM in data set [3] (setting [6]); 1 µM in data set [3] (setting [10]); 25 µM in data set [3] (setting [12]); 26 µM in data set [3] (setting [13]); > 200 µM in data set [3] (setting [14]). The solubility at 18 h amounted to 84 µM in data set [3] (setting [16]) and 52 µM in data set [3] (setting [17]).

The record behind these values is patent US8722849B2, “Polypeptides” (Novo Nordisk A/S, priority 2011, dated 2014).
